# In US9067967B2, “Peptides useful in the treatment and care of the skin and mucous membranes and their use in cosmetic or pharmaceutical compositions” (LIPOTEC, S.A., priority 2011, dated 2015):
# Assays:
# Type in all cases: cell-based
# human AQP-3 promoter = assay: Modulation of the human AQP-3 promoter activity (luciferase reporter in stably transfected keratinocytes); conditions: peptide at 0.5 mg/mL, 16-24 hours; normalized to negative control (carrier = 100%)
# Description: The modulation capacity of the promoter of the AQP-3 gene was evaluated in a cell line of keratinocytes stably transfected with the luciferase gene under the regulation of the human AQP-3 promoter. 20,000 to 30,000 cells per well were seeded and incubated for 24 hours in DMEM medium, after which the peptides of the invention were added at 0.5 mg/mL and were incubated for another 16-24 hours. The DMEM medium (carrier) was used as a negative control. The measurement of the promoter's activity was carried out using the Steady-Glo® Luciferase Assay System (PROMEGA) kit following the manufacturer's instructions. The luminescence values were read on a luminometer at 630 nm and the activity of the promoter was determined, which was normalized with regards to the values of the negative control.
# [1] = system: human dermal fibroblasts (HDFa); assay: Stimulation of collagen type I synthesis in human dermal fibroblasts (ELISA); conditions: 48 hours, carrier = 0%
# Description: The ability of the peptides of the invention to stimulate collagen type I synthesis in human dermal fibroblasts (HDFa, Cascade Biologics) was evaluated in culture using ELISA (enzyme-linked immunosorbent assay). The fibroblasts grew in M106 supplemented with specific factors for their growth. 50,000 cells per well were seeded and incubated at 37° C., 5% CO2, with humidified air. After 24 hours the peptides of the invention were added, and were incubated for another 48 hours, after which the supernatants were collected.
# 96-well plates were covered with 50 μL of a standard bovine collagen type I (Sigma) or with the previously collected supernatants. The collagen was absorbed onto the wells throughout the night at 4° C. in a humidified atmosphere. The plates were washed three times and were blocked for one hour with 3% bovine serum albumin, after which they were incubated with a primary anti-collagen type I anti-body (Sigma) for 2 hours. Subsequently, the secondary antibody, goat anti-mouse IgG-HRP (Molecular Probes) was added. The plates were incubated with the […] for 30 minutes under stirring and the reaction was stopped by adding 3 M of H2SO4. The absorbance was measured at 490 nm in a plate reader (Genios, Tecan) and the concentration of collagen was determined by comparing it with a standard linear regression line.
# AQP-3 gene = assay: Relative quantification of AQP-3 mRNA by quantitative real time PCR in human epidermal keratinocytes; conditions: 0.1 mg/mL, 16-24 hours; normalized to untreated cells (carrier = 100%)
# Description: The expression levels of the gene AQP-3 were measured by PCR in quantitative real time. A human keratinocyte cell line from adult skin was incubated at a density of 10,000 to 20,000 cells per well in EpiLife™ medium (Cascade Biologics) for 3-5 days and they were subsequently incubated with the peptides of the invention for another 16-24 hours, after which the cells were lysed and the RNA was extracted. The PCR was carried out in quantitative real time using the Taqman® Gene Expression Cells-to-CT (Applied Biosystems) kit according to the manufacturer's instructions and with the appropriate probes (TaqMan® Hs00185020_m1 probe for the AQP-3 gene and Taqman® Hs99999901_s1 probe for the eukaryotic ribosomal subunit 18S, the endogenous control of expression) and the values were normalized with regards to the basal levels of AQP-3 mRNA of the untreated cells (carrier).
# [2] = system: human epidermal keratinocytes; assay: Proliferation of human epidermal keratinocytes (calcein-AM fluorescence); conditions: 24 hours, carrier = 0%
# Description: Cell proliferation was evaluated by a fluorescence-based cell viability method, in which the live cells are distinguished from the dead cells by the enzymatic conversion of calcein-AM to its fluorescent form.
# Human keratinocytes were cultivated in DMEM supplemented with fetal bovine serum (FBS, Cultek) until confluence is achieved. The cells were then separated using trypsin and were seeded in 96-well plates. After 24 hours of incubation in DMEM at 37° C. in a humidified atmosphere at 5% CO2 a fresh medium was added with different concentrations of the product of the invention. Cells treated with DMEM as a negative control were used. The cells were incubated for another 24 hours under the same conditions and the medium was substituted by 100 μl of calcein-AM (Molecular Probes) at 0.4 μM diluted in phosphate buffered saline (PBS, Sigma). After 30 minutes of incubation at 37° C. the fluorescence was measured at excitation 485 nm 1 and emission 530 nm (λem) in a plate reader (Genios Tecan). The total growth percentage was calculated as T/C×100 wherein T is the fluorescence of the wells treated with the peptides of the invention and C the fluorescence of the control wells treated with DMEM.
Substance,Activity of the AQP-3 promoter (%) (human AQP-3 promoter),also measured
Ac-L-Ser-L-Pro-L-Ala-Gly-Gly-L-Pro-NH2 (Ac-SPAGGP-NH2) [Ac-SEQ ID 10-NH2],135,% Increase in collagen type I synthesis ([1]; 0.01 mg/mL): 36%; % Increase in collagen type I synthesis ([1]; 0.1 mg/mL): 58%; % relative quantity AQP-3 mRNA (AQP-3 gene): 200%; % Stimulation of proliferation ([2]; 0.16 mg/mL): 24%; % Stimulation of proliferation ([2]; 0.62 mg/mL): 28%; % Stimulation of proliferation ([2]; 2.50 mg/mL): 31%
Ac-L-Ser-L-Pro-L-Ala-Gly-Gly-L-Gln-NH2 (Ac-SPAGGQ-NH2) [Ac-SEQ ID 8-NH2],152,–
Ac-L-Ser-L-Val-L-Ala-L-Val-Gly-L-Pro-NH2 (Ac-SVAVGP-NH2) [Ac-SEQ ID 17-NH2],121,–
Ac-L-Ser-L-Pro-L-Ala-L-Glu-Gly-L-Gln-NH2 (Ac-SPAEGQ-NH2) [Ac-SEQ ID 5-NH2],121,–
Ac-L-Tyr-L-Pro-L-Ala-Gly-Gly-L-Pro-NH2 (Ac-YPAGGP-NH2) [Ac-SEQ ID 26-NH2],114,–
Ac-L-Tyr-L-Pro-L-Ala-Gly-Gly-Gly-NH2 (Ac-YPAGGG-NH2) [Ac-SEQ ID 25-NH2],132,–
Ac-L-Tyr-L-Pro-L-Ala-L-Glu-Gly-L-Pro-NH2 (Ac-YPAEGP-NH2) [Ac-SEQ ID 24-NH2],121,–
Ac-L-Ser-L-Val-L-Ala-L-Glu-Gly-L-Gln-NH2 (Ac-SVAEGQ-NH2) [Ac-SEQ ID 12-NH2],138,–
Ac-L-Tyr-L-Pro-L-Ala-L-Val-Gly-Gly-NH2 (Ac-YPAVGG-NH2) [Ac-SEQ ID 29-NH2],125,–
Ac-L-Tyr-L-Pro-L-Ala-L-Val-Gly-L-Gln-NH2 (Ac-YPAVGQ-NH2) [Ac-SEQ ID 28-NH2],129,–
Ac-L-Ser-L-Val-L-Ala-Gly-Gly-L-Pro-NH2 (Ac-SVAGGP-NH2) [Ac-SEQ ID 13-NH2],144,–
Ac-L-Ser-L-Val-L-Ala-L-Val-Gly-L-Gln-NH2 (Ac-SVAVGQ-NH2) [Ac-SEQ ID 15-NH2],129,% relative quantity AQP-3 mRNA (AQP-3 gene): 162%
Ac-L-Tyr-L-Pro-L-Ala-L-Glu-Gly-L-Gln-NH2 (Ac-YPAEGQ-NH2) [Ac-SEQ ID 22-NH2],135,% relative quantity AQP-3 mRNA (AQP-3 gene): 229%
Ac-L-Tyr-L-Pro-L-Ala-L-Glu-Gly-Gly-NH2 (Ac-YPAEGG-NH2) [Ac-SEQ ID 23-NH2],125,–
Ac-L-Ser-L-Pro-L-Ala-L-Glu-Gly-Gly-NH2 (Ac-SPAEGG-NH2) [Ac-SEQ ID 6-NH2],124,–
Ac-L-Ser-L-Val-L-Ala-L-Val-Gly-Gly-NH2 (Ac-SVAVGG-NH2) [Ac-SEQ ID 16-NH2],127,–

# Second part, led by results:
Activity of the AQP-3 promoter (%) (human AQP-3 promoter),Substance,also measured
122,Ac-L-Tyr-L-Pro-L-Ala-L-Val-Gly-L-Pro-NH2 (Ac-YPAVGP-NH2) [Ac-SEQ ID 31-NH2],–
136,Ac-L-Tyr-L-Val-L-Ala-Gly-Gly-L-His-NH2 (Ac-YVAGGH-NH2) [Ac-SEQ ID 34-NH2],–
120,Ac-L-Ser-L-Pro-L-Ala-Gly-Gly-L-His-NH2 (Ac-SPAGGH-NH2) [Ac-SEQ ID 45-NH2],–
135,Ac-L-Tyr-L-Val-L-Ala-L-Glu-Gly-L-Pro-NH2 (Ac-YVAEGP-NH2) [Ac-SEQ ID 32-NH2],–
115,Ac-L-Ser-L-Val-L-Ala-Gly-Gly-L-Gln-NH2 (Ac-SVAGGQ-NH2) [Ac-SEQ ID 50-NH2],–
156,Ac-L-Ser-L-Val-L-Ala-Gly-Gly-Gly-NH2 (Ac-SVAGGG-NH2) [Ac-SEQ ID 38-NH2],–
112,Ac-L-Ser-L-Val-L-Ala-L-Glu-Gly-L-His-NH2 (Ac-SVAEGH-NH2) [Ac-SEQ ID 58-NH2],–
116,Ac-L-Ser-L-Pro-L-Ala-L-Val-Gly-L-Pro-NH2 (Ac-SPAVGP-NH2) [Ac-SEQ ID 49-NH2],–
120,Ac-L-Tyr-L-Val-L-Ala-L-Glu-Gly-L-His-NH2 (Ac-YVAEGH-NH2) [Ac-SEQ ID 44-NH2],–
112,Ac-L-Tyr-L-Val-L-Ala-L-Glu-Gly-Gly-NH2 (Ac-YVAEGG-NH2) [Ac-SEQ ID 56-NH2],–
120,Ac-L-Tyr-L-Val-L-Ala-L-Val-Gly-Gly-NH2 (Ac-YVAVGG-NH2) [Ac-SEQ ID 36-NH2],–
150,Ac-L-Tyr-L-Val-L-Ala-Gly-Gly-L-Pro-NH2 (Ac-YVAGGP-NH2) [Ac-SEQ ID 35-NH2],–
122,Ac-L-Tyr-L-Pro-L-Ala-Gly-Gly-L-Gln-NH2 (Ac-YPAGGQ-NH2) [Ac-SEQ ID 43-NH2],–
133,Ac-L-Ser-L-Pro-L-Ala-L-Val-Gly-L-Gln-NH2 (Ac-SPAVGQ-NH2) [Ac-SEQ ID 39-NH2],–
121,Ac-L-Tyr-L-Pro-L-Ala-L-Val-Gly-L-His-NH2 (Ac-YPAVGH-NH2) [Ac-SEQ ID 30-NH2],–
126,Ac-L-Ser-L-Pro-L-Ala-L-Val-Gly-Gly-NH2 (Ac-SPAVGG-NH2) [Ac-SEQ ID 40-NH2],–
129,Ac-L-Tyr-L-Val-L-Ala-Gly-Gly-Gly-NH2 (Ac-YVAGGG-NH2) [Ac-SEQ ID 33-NH2],–
117,Ac-L-Ser-L-Pro-L-Ala-L-Glu-Gly-L-His-NH2 (Ac-SPAEGH-NH2) [Ac-SEQ ID 48-NH2],–
123,Ac-L-Tyr-L-Val-L-Ala-Gly-Gly-L-Gln-NH2 (Ac-YVAGGQ-NH2) [Ac-SEQ ID 42-NH2],–
119,Ac-L-Ser-L-Val-L-Ala-L-Glu-Gly-Gly-NH2 (Ac-SVAEGG-NH2) [Ac-SEQ ID 46-NH2],–
124,Ac-L-Ser-L-Val-L-Ala-Gly-Gly-L-His-NH2 (Ac-SVAGGH-NH2) [Ac-SEQ ID 41-NH2],–
